Measurements reported in US10927123B2, “Modulators of the beta-3 adrenergic receptor useful for the treatment or prevention of disorders related thereto” (Arena Pharmaceuticals, Inc., priority 2016, dated 2021).
pIC50: −log10 of the molar value.

Biological target: Beta-3 Adrenergic Receptor (Homo sapiens (Human), UniProt P13945)
Experiment: HTRF cAMP antagonist assay (IC50 determination)
Format: cell-based
Conditions: CHO-K1 cells stably expressing recombinant receptor; antagonism of isoproterenol at EC90; cAMP readout
Outline: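 CHO-K1 cells stably expressing the recombinant receptor were preincubated with compound (10-point, 5-fold dilutions; top final typically 10 or 100 μM) in PBS with 1 mM IBMX, then stimulated with isoproterenol at its EC90 for 1 h at room temperature. cAMP was read by HTRF against an on-plate standard curve.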

Chain of Beta-3 Adrenergic Receptor (P13945 whole entry, species assumed): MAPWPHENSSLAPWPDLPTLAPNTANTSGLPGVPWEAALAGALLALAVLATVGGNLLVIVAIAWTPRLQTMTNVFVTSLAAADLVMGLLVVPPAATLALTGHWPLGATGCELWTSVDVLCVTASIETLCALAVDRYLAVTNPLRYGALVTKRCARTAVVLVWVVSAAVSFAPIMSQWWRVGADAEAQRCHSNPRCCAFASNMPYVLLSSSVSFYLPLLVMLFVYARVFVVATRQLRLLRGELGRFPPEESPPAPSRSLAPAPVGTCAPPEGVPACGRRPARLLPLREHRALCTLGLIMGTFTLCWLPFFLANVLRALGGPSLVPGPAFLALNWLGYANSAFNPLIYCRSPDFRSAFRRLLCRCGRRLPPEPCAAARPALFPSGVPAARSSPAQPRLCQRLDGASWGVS

Row | Structure (SMILES) | pIC50
1 | COCS(=O)(=O)c1cccc(OC[C@@H](O)CN[C@H]2COC3(CCN(S(=O)(=O)c4c[nH]c5ccccc45)CC3)C2)c1 [Compound 312, (S)-1-((R)-8-(1H-indol-3-ylsulfonyl)-1-oxa-8-azaspiro[4.5]decan-3-ylamino)-3-(3-(methoxymethylsulfonyl)phenoxy)propan-2-ol] | 7.50
2 | CS(=O)(=O)Cc1cccc(OC[C@H](O)CNC2COC3(CCN(S(=O)(=O)c4ccc5ccccc5c4)CC3)C2)c1 (stereo partly drawn) [Compound 94, (2R)-1-(3-(methylsulfonylmethyl)phenoxy)-3-(8-(naphthalen-2-ylsulfonyl)-1-oxa-8-azaspiro[4.5]decan-3-ylamino)propan-2-ol] | 6.95
3 | Cc1ccc2c(O)c(S(=O)(=O)N3CCC4(CC3)C[C@@H](NC[C@H](O)COc3cccc(S(=O)(=O)C5CC5)c3)CO4)cnc2c1 [Compound 330, 3-((R)-3-((S)-3-(3-(cyclopropylsulfonyl)phenoxy)-2-hydroxypropylamino)-1-oxa-8-azaspiro[4.5]decan-8-ylsulfonyl)-7-methylquinolin-4-ol] | 7.15
4 | CS(=O)(=O)c1cccc(OC[C@@H](O)CNC2COC3(CCN(C(=O)c4cc5ccccc5[nH]4)CC3)C2)c1 (stereo partly drawn) [Compound 65, (3-((S)-2-hydroxy-3-(3-(methylsulfonyl)phenoxy)propylamino)-1-oxa-8-azaspiro[4.5]decan-8-yl)(1H-indol-2-yl)methanone] | 6.15
5 | O=S(=O)(c1cccc(OC[C@@H](O)CN[C@H]2COC3(CCN(S(=O)(=O)c4ccc5ncccc5c4)CC3)C2)c1)C1CCC1 [Compound 114, (S)-1-(3-(cyclobutylsulfonyl)phenoxy)-3-((R)-8-(quinolin-6-ylsulfonyl)-1-oxa-8-azaspiro[4.5]decan-3-ylamino)propan-2-ol] | 7.28
6 | CC(C)S(=O)(=O)c1cccc(OC[C@@H](O)CN[C@H]2COC3(CCN(S(=O)(=O)c4cnc5ccccc5c4)CC3)C2)c1 [Compound 119, (S)-1-(3-(isopropylsulfonyl)phenoxy)-3-((R)-8-(quinolin-3-ylsulfonyl)-1-oxa-8-azaspiro[4.5]decan-3-ylamino)propan-2-ol] | 7.93

Now from value to molecule:

Row | pIC50 | Structure (SMILES)
7 | 7.29 | COc1ccc(S(=O)(=O)N2CCC3(CC2)C[C@H](NC[C@H](O)COc2cccc(S(=O)(=O)C4(CO)CC4)c2)CO3)cc1-c1ccc(CN)cc1 [Compound 207, (S)-1-((S)-8-(4′-(aminomethyl)-6-methoxybiphenyl-3-ylsulfonyl)-1-oxa-8-azaspiro[4.5]decan-3-ylamino)-3-(3-(1-(hydroxymethyl)cyclopropylsulfonyl)phenoxy)propan-2-ol]
8 | 7.59 | NCCc1ccc(-c2cccc(S(=O)(=O)N3CCC4(CC3)C[C@@H](NC[C@H](O)COc3cccc(S(=O)(=O)C5(CO)CC5)c3)CO4)c2)cc1 [Compound 212, (S)-1-((R)-8-(4′-(2-aminoethyl)biphenyl-3-ylsulfonyl)-1-oxa-8-azaspiro[4.5]decan-3-ylamino)-3-(3-(1-(hydroxymethyl)cyclopropylsulfonyl)phenoxy)propan-2-ol]
9 | 7.51 | NC1(c2ccc(-c3cccc(S(=O)(=O)N4CCC5(CC4)C[C@@H](NC[C@H](O)COc4cccc(S(=O)(=O)C6(CO)CC6)c4)CO5)c3)cc2)CC1 [Compound 173, (S)-1-((R)-8-(4′-(1-aminocyclopropyl)biphenyl-3-ylsulfonyl)-1-oxa-8-azaspiro[4.5]decan-3-ylamino)-3-(3-(1-(hydroxymethyl)cyclopropylsulfonyl)phenoxy)propan-2-ol]
10 | 7.08 | COc1ccc(S(=O)(=O)N2CCC3(CC2)C[C@H](NC[C@H](O)COc2cccc(S(=O)(=O)C(C)(C)CO)c2)CO3)cc1-c1ccc(CN)cc1 [Compound 223, 2-(3-((S)-3-((S)-8-(4′-(aminomethyl)-6-methoxybiphenyl-3-ylsulfonyl)-1-oxa-8-azaspiro[4.5]decan-3-ylamino)-2-hydroxypropoxy)phenylsulfonyl)-2-methylpropan-1-ol]
